This is an account of results in US9796753B2, “N-substituted indenoisoquinolines and syntheses thereof” (Purdue Research Foundation, priority 2005, dated 2017).

For one test, the target named is recombinant TDP1 (Homo sapiens, UniProt Q9NUW8). As to the kind of experiment: Gel-based assay measuring the inhibition of recombinant TDP1. Format: biochemical. To be noted: Table 7; scores correspond to IC50 ranges; read-out: TDP1 inhibition. As to the method:
A 5′-[^32P]-labeled single-stranded DNA oligonucleotide containing a 3′-phosphotyrosine (N14Y) was generated as described by Dexheimer et al. (J. Med. Chem. 2009, 52, 7122-7131). The DNA substrate was then incubated with 5 μM recombinant TDP1 in the absence or presence of inhibitor for 15 min at room temperature in a buffer containing 50 mM Tris HCl, pH 7.5, 80 mM KCl, 2 mM EDTA, 1 mM DTT, 40 μg/ml BSA and 0.01% Tween-20. Reactions were terminated by the addition of 1 volume of gel loading buffer [99.5% (v/v) formamide, 5 mM EDTA, 0.01% (w/v) xylene cyanol, and 0.01% (w/v) bromophenol blue]. Samples were subjected to a 16% denaturing PAGE and gels were exposed after drying to a PhosphorImager screen (GE Healthcare). Gel images were scanned using a Typhoon 8600 (GE Healthcare) and densitometric analyses were performed using the ImageQuant software (GE Healthcare).
The TDP1 inhibitory activities of the O-2-substituted indenoisoquinolines were measured by determining their abilities to inhibit the hydrolysis of the phosphodiester linkage between tyrosine and the 3′-end of a DNA oligonucleotide substrate and thus prevent the generation of an oligonucleotide with a free 3′-phosphate (N14P, Scheme 13). Therefore, the disappearance of the gel band for N14P indicates TDP1 inhibition.
Tyrosyl-DNA phosphodiesterase 1 (TDP1) is a DNA repair enzyme that repairs cytotoxic DNA damage induced by Top1 inhibitors.

Test [1] concerns all human cancer cell lines successfully tested. Description: NCI screen mean graph midpoint (MGM) for growth inhibition. It is filed as cell-based. To be noted: Homo sapiens; read-out: MGM GI50. The method in brief:
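NCI60 panel cells exposed to compound at 100, 10, 1, 0.1 and 0.01 μM for 48 h, then sulforhodamine B staining. Percentage growth versus control plotted against log concentration; MGM is the midpoint across all lines tested.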

Sequence of recombinant TDP1 (Q9NUW8 whole entry): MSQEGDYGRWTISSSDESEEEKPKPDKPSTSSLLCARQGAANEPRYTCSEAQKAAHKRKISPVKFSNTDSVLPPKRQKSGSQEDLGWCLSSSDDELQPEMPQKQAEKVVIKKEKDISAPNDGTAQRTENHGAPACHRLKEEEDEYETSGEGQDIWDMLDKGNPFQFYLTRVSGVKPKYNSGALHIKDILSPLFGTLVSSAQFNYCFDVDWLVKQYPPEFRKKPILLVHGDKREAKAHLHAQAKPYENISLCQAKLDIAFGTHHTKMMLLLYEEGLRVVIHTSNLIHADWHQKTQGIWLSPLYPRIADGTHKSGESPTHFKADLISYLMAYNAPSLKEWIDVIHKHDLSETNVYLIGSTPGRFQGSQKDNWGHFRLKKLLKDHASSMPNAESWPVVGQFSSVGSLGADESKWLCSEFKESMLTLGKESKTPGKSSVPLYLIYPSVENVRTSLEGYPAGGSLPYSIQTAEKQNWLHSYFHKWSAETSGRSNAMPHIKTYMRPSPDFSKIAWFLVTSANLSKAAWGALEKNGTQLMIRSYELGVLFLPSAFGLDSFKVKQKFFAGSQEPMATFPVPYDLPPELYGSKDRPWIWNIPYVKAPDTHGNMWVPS

In general, GI50 refers to the concentration giving 50% growth inhibition. For the compound `O=C1c2cc3c(cc2-c2c1c1ccc(F)cc1c(=O)n2CCCn1ccnc1)OCO3` [Compound 36], on recombinant TDP1, the IC50 was > 111000 nM. Besides, in test [1], the GI50 came to 11 nM.
Take `O=C1c2cc3c(cc2-c2c1c1ccc(F)cc1c(=O)n2CCCN1CCOCC1)OCO3` [Compound 37]: the IC50 on recombinant TDP1 is > 111000 nM.
As for `O=C1c2cc3c(cc2-c2c1c1ccc(F)cc1c(=O)n2CCCNCCO)OCO3` [Compound 38], the IC50 at recombinant TDP1 lay in the range of 1000 to 12000 nM. The GI50 in test [1] stood at 55 nM.
For the compound `O=C1c2cc3c(cc2-c2c1c1ccc(Cl)cc1c(=O)n2CCCn1ccnc1)OCO3` [Compound 39], the IC50 at recombinant TDP1 lay in the range of 37000 to 111000 nM. In test [1], the concentration for 50% growth inhibition (GI50) was 24 nM.
With `O=C1c2cc3c(cc2-c2c1c1ccc(Cl)cc1c(=O)n2CCCNCCO)OCO3` [Compound 41], at recombinant TDP1, the IC50 lay within 1000 to 12000 nM. The GI50 in test [1] is 229 nM.
For the compound `O=C1c2cc3c(cc2-c2c1c1cc(F)c(F)cc1c(=O)n2CCCn1ccnc1)OCO3` [Compound 42], the IC50 at recombinant TDP1 was > 111000 nM. In addition, the GI50 in test [1] came to 30 nM.
For `O=C1c2cc3c(cc2-c2c1c1cc(Cl)c(Cl)cc1c(=O)n2CCCn1ccnc1)OCO3` [Compound 44], the IC50 at recombinant TDP1 is > 111000 nM. In addition, in test [1], the GI50 turned out to be 17 nM.
